Test results published in patent EP2462919A2, “Synergistic active agent combination for protecting the skin from IR radiation” (priority 2010, dated 2012).

Experiments:
Format in all cases: cell-based
Kollagenase MMP-1 = assay: Gene expression of ageing marker MMP-1 in cultured monolayer fibroblasts after substance treatment and infrared irradiation; details: for Expression der Kollagenase MMP-1 (result in words): Fibroblasten, Infrarot-Strahlen 760-1400 nm, after treatment
Text: (§1) 1. In vitro Assays hinsichtlich der Expression typischer Altersmarker in kultivierten Fibroblasten nach Substanzgabe und Infrarotbestrahlung
(§2) Methode: Monolayer-Fibroblasten wurden 24 Stunden vor und 24 Stunden nach Infrarot-Bestrahlung mit Lipochroman (Dimethylmethoxy Chromanol, 0,005 Gew.-%), Taurin (2-Aminoethansulfonsäure 0,005 Gew.-%) und Kombinationen beider Substanzen behandelt. Im Folgenden wurde die Genexpression der zwei Hautalterungsmarker Kollagenase MMP-1, das hinsichtlich der Hautalterung wichtigste Kollagen abbauende Enzym, und des spezifischen Inhibitors der Kollagenase MMP-1, TIMP-1 (tissue inhibitor of metalloproteinase 1), untersucht. Die Genexpressionswerte wurden im Folgenden auf die Werte der jeweiligen unbehandelten Kontrolle relativiert. Als Kontrollen wurden Fibroblasten analysiert, die ausschließlich mit Infrarot bestrahlt wurden.

[1] = test system: TIMP-1 (tissue inhibitor of metalloproteinase 1); assay: Gene expression of ageing marker TIMP-1 in cultured monolayer fibroblasts after substance treatment and infrared irradiation; details: for Expression von TIMP-1 (result in words): Fibroblasten, Bestrahlung mit Infrarot-Strahlen, after treatment
Text: as §1, §2

MMP1 / TIMP-1 = assay: MMP-1 / TIMP-1 expression ratio (collagen build-up/degradation balance) in fibroblasts after substance treatment and infrared irradiation; details: Monolayer-Fibroblasten, mit Infrarot A bestrahlt, irradiated-only control 1,2
Text: as §1
as §2, with “Methode: Monolayer-Fibroblasten wurden 24 Stunden vor und 24 Stunden nach Infrarot-Bestrahlung mit Lipochroman (Dimethylmethoxy Chromanol, 0,005 Gew.-%), Taurin (2-Aminoethansulfonsäure 0,005 Gew.-%) und Kombinationen beider Substanzen behandelt.” left out
Entscheidend für die Balance des Auf- und Abbaus von Kollagen in der Dermis ist das Verhältnis zwischen MMP-1 und TIMP-1. Ist dieses Verhältnis größer als der Vergleichswert, so kann von einem vermehrten Abbau durch die Kollagenase ausgegangen werden, ist das Verhältnis kleiner, so wird der Abbau vermehrt verhindert und neues Kollagen kann synthetisiert werden.

Expression der Kollagenase MMP-1 (result in words) (Kollagenase MMP-1)	Expression von TIMP-1 (result in words) [1]	Structure (SMILES)	fold induction at 0.05 % (Kollagenase MMP-1; Fibroblast, light or radiation study, Monolayer-Fibroblasten, mit Infrarot A bestrahlt, 0,05 % Taurin, treated 24 h before and 24 h after irradiation, read-out: MMP-1 Regulierung mRNA (Gene Expression versus Sham control))	fold induction at 0.05 % ([1]; Fibroblast, light or radiation study, Monolayer-Fibroblasten, mit Infrarot A bestrahlt, 0,05 % Taurin, treated 24 h before and 24 h after irradiation, read-out: TIMP-1 Regulierung mRNA (Gene Expression versus Sham control))	MMP1 / TIMP-1 Ratio (MMP1 / TIMP-1; 0,05 % Taurin)	fold induction at 0.005 % (Kollagenase MMP-1; Fibroblast, light or radiation study, Monolayer-Fibroblasten, mit Infrarot A bestrahlt, 0,005 % Lipochroman-6, treated 24 h before and 24 h after irradiation, read-out: MMP-1 Regulierung mRNA (Gene Expression versus Sham control))	fold induction at 0.005 % ([1]; Fibroblast, light or radiation study, Monolayer-Fibroblasten, mit Infrarot A bestrahlt, 0,005 % Lipochroman-6, treated 24 h before and 24 h after irradiation, read-out: TIMP-1 Regulierung mRNA (Gene Expression versus Sham control))	MMP1 / TIMP-1 Ratio (MMP1 / TIMP-1; 0,005 % Lipochroman-6)
erhöhten Expressionswerten	leichten Steigerung der Expression	NCCS(=O)(=O)O [Taurin, 2-Aminoethansulfonsäure]	2.05	1.1	1,6	–	–	–
erhöhten Expressionswerten	starken Expressionssteigerung	COc1cc2c(cc1O)CCC(C)(C)O2 [Lipochroman-6, 3,4-Dihydro-7-methoxy-2,2-dimethyl-2H-2 1-benzopyran-6-ol]	–	–	–	1.75	1.65	2,7
